These results are taken from US7592373B2 (Boehringer Ingelheim International GmbH, priority 2003, dated 2009).

For one data set, the target named is T1, hMCH-1R (Homo sapiens, UniProt Q99705).
T1 construct: expressed in transfected cells
The data set can be described thus: MCH-1 receptor binding test (125I-MCH binding to hMCH-1R transfected cell membranes). The following applies: membranes of hMCH-1R transfected CHO/Galpha16 cells. The protocol: After the incubation the reaction is filtered using a cell harvester through 0.5% PEI treated fiberglass filters (GF/B, Unifilter Packard). The membrane-bound radioactivity retained on the filter is then determined after the addition of scintillator substance (Packard Microscint 20) in a measuring device (TopCount of Packard). […] The analysis of the concentration binding curve is carried out on the assumption of one receptor binding site.

The conditions of data set [1]: animals treated with the antagonist; cited from earlier work.
The subject of another data set is rats. As to conditions: cited from earlier work.

T1 sequence (Q99705 whole entry): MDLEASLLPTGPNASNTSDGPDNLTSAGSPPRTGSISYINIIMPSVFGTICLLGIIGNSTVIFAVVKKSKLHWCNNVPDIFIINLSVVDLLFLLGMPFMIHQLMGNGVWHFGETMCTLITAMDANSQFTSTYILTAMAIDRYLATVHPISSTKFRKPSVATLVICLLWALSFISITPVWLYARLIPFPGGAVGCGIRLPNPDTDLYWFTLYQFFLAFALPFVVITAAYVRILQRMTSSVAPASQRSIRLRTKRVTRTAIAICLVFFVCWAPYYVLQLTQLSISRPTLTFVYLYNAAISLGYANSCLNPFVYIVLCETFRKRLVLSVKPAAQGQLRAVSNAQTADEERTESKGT

As for `CN(C(=O)C#Cc1ccc(CN2CCCC2)cc1)c1ccc(-c2ccc(Cl)cc2)cc1` [Example 1.23, 3-(4-pyrrolidin-1-ylmethylphenyl)propynoic acid-(4′-chlorobiphenyl-4-yl)methylamide], the melting point was 161 to 164 °C. In addition, the IC50 on hMCH-1R is 7.5 nM.
`COc1ccc(-c2ccc(NC(=O)/C=C/c3ccc(CN4CCCC4)cc3)cc2)cc1` [Example 5.1, (E)-N-(4′-methoxybiphenyl-4-yl)-3-(4-pyrrolidin-1-ylmethylphenyl)acrylamide] came in with a melting point of 199 to 200 °C. The same compound returned a half-maximal inhibitory concentration (IC50) on hMCH-1R of 20 nM.
For `CCN(CC)CCOc1ccc(NC(=O)C#Cc2ccc(Cl)cc2Cl)c(Cl)c1` [Example 4.8, 3-(2,4-dichlorophenyl)propynoic acid-[2-chloro-4-(2-diethylaminoethoxy)phenyl]amide], at hMCH-1R, the IC50 stood at 50 nM. In other words, the double-digit nanomolar range.
On to `COCC1=C(C(=O)OC)[C@H](c2ccc(F)c(F)c2)N(C(=O)NCCCN2CCC(c3cccc(NC(C)=O)c3)CC2)C(=O)N1` [SNAP-7941], for which the “body weight in long term trials” value in data set [1] is recorded as “lose significant amounts of weight”. Also, in the data set with rats, the “effects in behavioral experiments” value is “anxiolytic and antidepressant effects”.
In the case of `O=C(C#Cc1ccc(C(F)(F)F)cc1Cl)Nc1ccc(OCCn2cccn2)cc1` [Example 3.43, 3-(2-chloro-4-trifluoromethylphenyl)propynoic acid-[4-(2-pyrazol-1-ylethoxy)phenyl]amide], the melting point lay in the range of 120 to 125 °C.
Consider `CN(C(=O)CCc1ccc(CN2CCC3(CCCC3)CC2)cc1)c1ccc(-c2ccc(Cl)cc2)cc1` [Example 6.45, 3-[4-(8-azaspiro[4.5]dec-8-ylmethyl)phenyl]-N-(4′-chlorobiphenyl-4-yl)-N-methylpropionamide], for which the melting point is 119 °C.
Compound `CC1CC(C)CN(Cc2ccc(NC(=O)C#Cc3ccc(-c4ccc(Cl)cc4)cn3)cc2)C1` (centres unmarked) [Example 3.29, 3-[5-(4-chlorophenyl)pyridin-2-yl]propynoic acid-[4-(3,5-dimethylpiperidin-1-ylmethyl)phenyl]amide] returned a melting point of 195 to 197 °C.
As to `COC1CCN(Cc2ccc(NC(=O)C#Cc3ccc(-c4ccc(Cl)cc4)cc3)cc2)CC1` [Example 3.13, 3-(4′-chlorobiphenyl-4-yl)propynoic acid-[4-(4-methoxypiperidin-1-ylmethyl)phenyl]amide], the melting point lay in the range of 227 to 234 °C.
As to `COC1CCN(Cc2ccc(C#CC(=O)Nc3ccc(-c4ccc(Cl)cc4)cc3)cc2)CC1` [Example 1.36, 3-[4-(4-methoxypiperidin-1-ylmethyl)phenyl]propynoic acid-(4′-chlorobiphenyl-4-yl)amide], the melting point lay within 145 to 146 °C.
Still for that read-out and setting: with `O=C(Nc1ccc(-c2ccc(Cl)cc2)cc1)C1CC1c1ccc(CN2CCOCC2)cc1` (centres unmarked) [Example 6.217, 2-(4-morpholin-4-ylmethylphenyl)cyclopropanecarboxylic acid (4′-chlorobiphenyl-4-yl)amide] the figure was 187 to 188 °C; with `CN(Cc1ccc(/C=C/C(=O)Nc2ccc(-c3ccc(Cl)cc3)cc2)cc1)CC1CC1` [Example 5.17, (E)-N-(4′-chlorobiphenyl-4-yl)-3-{4-[(cyclopropylmethylmethylamino)methyl]phenyl}acrylamide], 246 to 247 °C; with `CN(Cc1ccc(CCC(=O)Nc2ccc(-c3ccc(Cl)cc3)cc2)cc1)CC1CCOCC1` [Example 6.19, N-(4′-chlorobiphenyl-4-yl)-3-(4-{[methyl-(tetrahydropyran-4-ylmethyl)amino]methyl}phenyl)propionamide], 162 to 163 °C.
Still for that read-out and setting: under `CCN(CC)CCc1ccc(NC(=O)C#Cc2ccc(C(F)(F)F)cc2Cl)cc1` [Example 3.35, 3-(2-chloro-4-trifluoromethylphenyl)propynoic acid-[4-(2-diethylaminoethyl)phenyl]amide] stands 145 to 150 °C.
`O=C(C#Cc1ccc(CCN2CCCC2)cc1)Nc1ccc(Cl)cc1` [Example 2.2, 3-[4-(2-pyrrolidin-1-ylethyl)phenyl]propynoic acid-4-chlorophenylamide] showed a melting point of 153 to 154 °C.
